In ChEMBL document CHEMBL3885881, “DrugMatrix”:

Organism: Rattus norvegicus
Experiment: DrugMatrix - Regimen: Daily Repeat
Format: toxicity, organism-based, Sprague-Dawley
Design: regimen Daily Repeat, gender Male, age 6-8 weeks
Details: in vivo, po, 1500 mg/kg, route oral GAVAGE, dose level High, vehicle .5 % CMC; for ABSOLUTE BASOPHIL / ABSOLUTE EOSINOPHIL / ABSOLUTE LYMPHOCYTE / ABSOLUTE MONOCYTE / ABSOLUTE SEGMENTED NEUTROPHIL / BASOPHIL / EOSINOPHIL / ERYTHROCYTE COUNT / HEMATOCRIT / HEMOGLOBIN / LEUKOCYTE COUNT / LYMPHOCYTE / MEAN CORPUSCULAR HEMOGLOBIN / MEAN CORPUSCULAR HEMOGLOBIN CONCENTRATION / MEAN CORPUSCULAR VOLUME / MONOCYTE / NEUTROPHIL / NUCLEATED RED BLOOD CELLS / PLATELET COUNT: tissue Blood
[1] = 72 h, tissue Plasma, time 3 day
[2] = 120 h, tissue Plasma, time 5 day

## CC(C)=CCC/C(C)=C/CO [GERANIOL]
72 h, time 3 day
  ABSOLUTE BASOPHIL: 0 CELLS/uL
  ABSOLUTE EOSINOPHIL: 0 CELLS/uL
  ABSOLUTE LYMPHOCYTE: 15609.33 CELLS/uL
  ABSOLUTE MONOCYTE: 78.67 CELLS/uL
  ABSOLUTE SEGMENTED NEUTROPHIL: 1378.67 CELLS/uL
  BASOPHIL: 0%
  EOSINOPHIL: 0%
  ERYTHROCYTE COUNT: 5.7 x10E6/uL
  HEMATOCRIT: 37.23%
  HEMOGLOBIN: 14.37 G/DL
  LEUKOCYTE COUNT: 17.07 x10E3/uL
  LYMPHOCYTE: 92%
  MEAN CORPUSCULAR HEMOGLOBIN: 25.2 pg
  MEAN CORPUSCULAR HEMOGLOBIN CONCENTRATION: 38.57 G/DL
  MEAN CORPUSCULAR VOLUME: 65.37 fL
  MONOCYTE: 0.33%
  NEUTROPHIL: 7.67%
  NUCLEATED RED BLOOD CELLS: 0.33 /100WBC
  PLATELET COUNT: 1276 x10E3/uL
[1]
  ALANINE AMINOTRANSFERASE: 47.33 u/L
  ALBUMIN: 4.4 G/DL
  ALKALINE PHOSPHATASE: 442 u/L
  ASPARTATE AMINOTRANSFERASE: 82 u/L
  BLOOD UREA NITROGEN: 13 mg/dL
  CARBON DIOXIDE: 29 mmol/L
  CHLORIDE: 100.67 MEQ/L
  CHOLESTEROL: 46.33 mg/dL
  CREATINE PHOSPHOKINASE: 471.33 u/L
  CREATININE: 0.25 mg/dL
  GLUCOSE: 162 mg/dL
  LACTATE DEHYDROGENASE: 193.67 u/L
  LIPASE: 9 u/L
  PHOSPHORUS: 14.7 mg/dL
  POTASSIUM: 7.11 MEQ/L
  SODIUM: 143.87 MEQ/L
  TOTAL BILIRUBIN: 0.13 mg/dL
  TOTAL PROTEIN: 5.93 G/DL
  URIC ACID: 2.07 mg/dL
120 h, time 5 day
  ABSOLUTE BASOPHIL: 0 CELLS/uL
  ABSOLUTE EOSINOPHIL: 0 CELLS/uL
  ABSOLUTE LYMPHOCYTE: 19247.33 CELLS/uL
  ABSOLUTE MONOCYTE: 1179 CELLS/uL
  ABSOLUTE SEGMENTED NEUTROPHIL: 2373.67 CELLS/uL
  BASOPHIL: 0%
  EOSINOPHIL: 0%
  ERYTHROCYTE COUNT: 6.01 x10E6/uL
  HEMATOCRIT: 36.67%
  HEMOGLOBIN: 14.67 G/DL
  LEUKOCYTE COUNT: 22.8 x10E3/uL
  LYMPHOCYTE: 84.67%
  MEAN CORPUSCULAR HEMOGLOBIN: 24.53 pg
  MEAN CORPUSCULAR HEMOGLOBIN CONCENTRATION: 40.03 G/DL
  MEAN CORPUSCULAR VOLUME: 61.2 fL
  MONOCYTE: 5%
  NEUTROPHIL: 10.33%
  NUCLEATED RED BLOOD CELLS: 0 /100WBC
  PLATELET COUNT: 1333 x10E3/uL
[2]
  ALANINE AMINOTRANSFERASE: 63 u/L
  ALBUMIN: 4.63 G/DL
  ALKALINE PHOSPHATASE: 302.67 u/L
  ASPARTATE AMINOTRANSFERASE: 95.67 u/L
  BLOOD UREA NITROGEN: 18 mg/dL
  CARBON DIOXIDE: 32 mmol/L
  CHLORIDE: 102.33 MEQ/L
  CHOLESTEROL: 85.67 mg/dL
  CREATINE PHOSPHOKINASE: 441 u/L
  CREATININE: 0.16 mg/dL
  GLUCOSE: 143 mg/dL
  LACTATE DEHYDROGENASE: 772 u/L
  LIPASE: 10 u/L
  PHOSPHORUS: 12.2 mg/dL
  POTASSIUM: 6.32 MEQ/L
  SODIUM: 142.2 MEQ/L
  TOTAL BILIRUBIN: 0.1 mg/dL
  URIC ACID: 2 mg/dL
